# From patent publication US20080039438A1, “1B-Methylcarbapenem Derivative and Process for the Preparation Thereof” (Korea Institute of Science and Technology, priority 2004, published 2008)
# Key:
# Assay type in all cases: cell-based
# [1] = system: Streptococcus pyogenes 77A; assay: MIC against standard strains (agar dilution); conditions: standard strain Streptococcus pyogenes 77A, 37° C., 18 to 20 hours, read-out: Minimum Inhibitory Concentration (MIC)
# [2] = system: Staphylococcus aureus SG511; assay: MIC against standard strains (agar dilution); conditions: standard strain Staphylococcus aureus SG511, 37° C., 18 to 20 hours, read-out: Minimum Inhibitory Concentration (MIC)
# [3] = system: Staphylococcus aureus 285; assay: MIC against standard strains (agar dilution); conditions: standard strain Staphylococcus aureus 285, 37° C., 18 to 20 hours, read-out: Minimum Inhibitory Concentration (MIC)
# Escherichia coli 078 = assay: MIC against standard strains (agar dilution); conditions: standard strain Escherichia coli 078, 37° C., 18 to 20 hours, read-out: Minimum Inhibitory Concentration (MIC)
# Escherichia coli DC 0 = assay: MIC against standard strains (agar dilution); conditions: DC0, standard strain Escherichia coli DC 0, 37° C., 18 to 20 hours, read-out: Minimum Inhibitory Concentration (MIC)
# [4] = system: Pseudomonas aeruginosa 9027; assay: MIC against standard strains (agar dilution); conditions: standard strain Pseudomonas aeruginosa 9027, 37° C., 18 to 20 hours, read-out: Minimum Inhibitory Concentration (MIC)
# [5] = system: Klebsiella aerogenes 1522E; assay: MIC against standard strains (agar dilution); conditions: standard strain Klebsiella aerogenes 1522E, 37° C., 18 to 20 hours, read-out: Minimum Inhibitory Concentration (MIC)
# [6] = system: Enterobacter cloacae 1321E; assay: MIC against standard strains (agar dilution); conditions: standard strain Enterobacter cloacae 1321E, 37° C., 18 to 20 hours, read-out: Minimum Inhibitory Concentration (MIC)
# [7] = system: Methicillin-sensitive Staphylococcus aureus; assay: MIC against clinically isolated aerobic Gram-positive strains; conditions: 33 strains
# Enterococcus faecalis = assay: as above; conditions: 30 strains
# Enterococcus faecium = assay: as above; conditions: clinically isolated Enterococcus faecium, 29 strains
# Moraxella catarrhalis = assay: MIC against clinically isolated aerobic Gram-negative strains; conditions: 24 strains
# Haemophilus influenzae = assay: as above; conditions: 24 strains
# Escherichia coli = assay: as above; conditions: 30 strains
# Klebsiella oxytoca = assay: as above; conditions: 15 strains
# Morganella morganii = assay: as above; conditions: 15 strains
# Acinetobacter baumannii = assay: as above; conditions: 30 strains
# Pseudomonas aeruginosa = assay: as above; conditions: 60 strains
# Peptostreptococcus spp. = assay: MIC against clinically isolated anaerobic Gram-positive strains; conditions: 27 strains
# Clostridium perfringens = assay: microbe, parasite or virus in culture
smiles,measurement,setting,value
"C[C@@H](O)[C@H]1C(=O)N2C(C(=O)O)=C(SCCN=CN)C[C@H]12 [IPM, Imipenem]",MIC,[1],< 0.002 mg/L
same,MIC,[2],0.013 mg/L
same,MIC,[3],0.013 mg/L
same,MIC,Escherichia coli 078,0.098 mg/L
same,MIC,Escherichia coli DC 0,0.195 mg/L
same,MIC,[4],0.391 mg/L
same,MIC,[5],0.195 mg/L
same,MIC,[6],0.098 mg/L
same,MIC50,[7],0.015 mg/L
same,MIC90,[7],0.03 mg/L
same,MIC Range,[7],0.015 to 0.06 mg/L
same,MIC50,Enterococcus faecalis,1 mg/L
same,MIC90,Enterococcus faecalis,4 mg/L
same,MIC Range,Enterococcus faecalis,0.5 to 4 mg/L
same,MIC Range,Enterococcus faecium,2 to 128 mg/L
same,MIC50,Enterococcus faecium; read-out: MIC50,128 mg/L
same,MIC90,Enterococcus faecium; read-out: MIC90,128 mg/L
same,MIC50,Moraxella catarrhalis,0.06 mg/L
same,MIC90,Moraxella catarrhalis,0.06 mg/L
same,MIC Range,Moraxella catarrhalis,0.008 to 0.25 mg/L
same,MIC50,Haemophilus influenzae,1 mg/L
same,MIC90,Haemophilus influenzae,4 mg/L
same,MIC Range,Haemophilus influenzae,0.25 to 8 mg/L
same,MIC50,Escherichia coli,0.12 mg/L
same,MIC90,Escherichia coli,0.5 mg/L
same,MIC Range,Escherichia coli,0.06 to 1 mg/L
same,MIC50,Klebsiella oxytoca,0.12 mg/L
same,MIC90,Klebsiella oxytoca,0.5 mg/L
same,MIC Range,Klebsiella oxytoca,0.06 to 0.5 mg/L
same,MIC50,Morganella morganii,1 mg/L
same,MIC90,Morganella morganii,2 mg/L
same,MIC Range,Morganella morganii,0.5 to 2 mg/L
same,MIC50,Acinetobacter baumannii,1 mg/L
same,MIC90,Acinetobacter baumannii,8 mg/L
same,MIC Range,Acinetobacter baumannii,0.25 to 32 mg/L
same,MIC50,Pseudomonas aeruginosa,2 mg/L
same,MIC90,Pseudomonas aeruginosa,16 mg/L
same,MIC Range,Pseudomonas aeruginosa,0.5 to 128 mg/L
same,MIC50,Peptostreptococcus spp.,0.06 mg/L
same,MIC90,Peptostreptococcus spp.,2 mg/L
same,MIC Range,Peptostreptococcus spp.,0.06 to 2 mg/L
same,MIC50,Clostridium perfringens; Clostridium perfringens,0.06 mg/L
same,MIC90,Clostridium perfringens; Clostridium perfringens,0.12 mg/L
same,MIC Range,"Clostridium perfringens; clinically isolated anaerobic Clostridium perfringens, 13 strains",0.06 to 0.12 mg/L
